According to patent US8193195B2, “Polymorphic forms of 1-'4-(5-cyanoindol-3-yl) butyl-4-(2-carbamoylbenzofuran-5-yl) piperazine hydrochloride” (Merck Patentgesellschaft, priority 2001, dated 2012):
Where two headings read alike, the source gives them in different places.

What was measured:
[1] = Solubility via potentiometric titration (pSOL solubility profiler); type: physicochemical; conditions: for Solubility data: hydrochloride; for solubility: water, thermodynamic from solid
Description: Solubility data of Forms II, III, IV, V, VI and VIII are measured according to Alex Avdeef et al, Pharm. Pharmacol. Commun.
The pSOLTM solubility profiler, automatically collects potentiometric data, calculates the pH-solubility profiles, and prints the values at 0.1 pH unit intervals. Intrinsic solubilities in the milli-, micro- and nanogram levels can be determined. Also presented are two new concepts, the Flux Factor Profile and Dose Limit Profile. Both concepts follow the guidelines consistent with the BioPharmaceutics Classification Scheme.

[2] = Thermodynamic stability of the forms, energy/temperature diagram (FIG. 27); type: physicochemical
From the text: FIG. 27 is an energy/temperature diagram of Forms III, IV and VII

In the case of `Cl.N#Cc1ccc2[nH]cc(CCCCN3CCN(c4ccc5oc(C(N)=O)cc5c4)CC3)c2c1` [Form VI, 1-[4-(5-cyanoindol-3-yl)butyl]-4-(2-carbamoyl-benzofuran-5-yl)-piperazine hydrochloride], the Solubility data ([1]; potentiometric titration according to Avdeef et al., listed as VI) is reported as 0.23 µg/mL.

For `Cl.N#Cc1ccc2[nH]cc(CCCCN3CCN(c4ccc5oc(C(N)=O)cc5c4)CC3)c2c1` [Form III, 1-[4-(5-cyanoindol-3-yl)butyl]-4-(2-carbamoyl-benzofuran-5-yl)-piperazine hydrochloride], the Solubility data ([1]; potentiometric titration according to Avdeef et al., listed as III) was 0.12 µg/mL and the “relative (thermodynamic) stability of the form at room temperature” value ([2]; room temperature) was “the most stable form at room temperature”.

Compound `Cl.N#Cc1ccc2[nH]cc(CCCCN3CCN(c4ccc5oc(C(N)=O)cc5c4)CC3)c2c1` [Form I, 1-[4-(5-cyanoindol-3-yl)butyl]-4-(2-carbamoyl-benzofuran-5-yl)-piperazine hydrochloride] has a Solubility data ([1]; potentiometric titration according to Avdeef et al., listed as I) of 0.08 µg/mL.

`Cl.N#Cc1ccc2[nH]cc(CCCCN3CCN(c4ccc5oc(C(N)=O)cc5c4)CC3)c2c1` [Form II, 1-[4-(5-cyanoindol-3-yl)butyl]-4-(2-carbamoyl-benzofuran-5-yl)-piperazine hydrochloride] showed a Solubility data ([1]; potentiometric titration according to Avdeef et al., listed as II) of 0.03 µg/mL.

For `Cl.N#Cc1ccc2[nH]cc(CCCCN3CCN(c4ccc5oc(C(N)=O)cc5c4)CC3)c2c1.O` [Form V, 1-[4-(5-cyanoindol-3-yl)butyl]-4-(2-carbamoyl-benzofuran-5-yl)-piperazine hydrochloride monohydrate], the solubility ([1]; potentiometric titration according to Avdeef et al., read-out: Solubility data) was 0.18 µg/mL.

With `Cl.N#Cc1ccc2[nH]cc(CCCCN3CCN(c4ccc5oc(C(N)=O)cc5c4)CC3)c2c1` [Form IV, 1-[4-(5-cyanoindol-3-yl)butyl]-4-(2-carbamoyl-benzofuran-5-yl)-piperazine hydrochloride] the Solubility data ([1]; potentiometric titration according to Avdeef et al., listed as IV) was 0.33 µg/mL, the solubility ([1]; in water, read-out: solubility in water) was 0.328 µg/mL and the “relative stability of the form at higher temperatures” value ([2]; higher temperatures, e.g. >100° C.) was “the most stable form at higher temperatures”.
